Experimental data reported in patent publication US4883649A (The University of Michigan, priority 1988, dated 1989).
“Also recorded” adds a separate entry of the source. Counter-ions that a name gives are not always drawn. Like-named read-outs stand apart in the source and are kept apart here.

Legend:
α2-adrenergic receptor [1] = molecular target: T1, α2-adrenergic receptor (Homo sapiens, UniProt P08913); conditions: human platelet membranes, comparison with other drugs
T1 sequence (P08913 1-465): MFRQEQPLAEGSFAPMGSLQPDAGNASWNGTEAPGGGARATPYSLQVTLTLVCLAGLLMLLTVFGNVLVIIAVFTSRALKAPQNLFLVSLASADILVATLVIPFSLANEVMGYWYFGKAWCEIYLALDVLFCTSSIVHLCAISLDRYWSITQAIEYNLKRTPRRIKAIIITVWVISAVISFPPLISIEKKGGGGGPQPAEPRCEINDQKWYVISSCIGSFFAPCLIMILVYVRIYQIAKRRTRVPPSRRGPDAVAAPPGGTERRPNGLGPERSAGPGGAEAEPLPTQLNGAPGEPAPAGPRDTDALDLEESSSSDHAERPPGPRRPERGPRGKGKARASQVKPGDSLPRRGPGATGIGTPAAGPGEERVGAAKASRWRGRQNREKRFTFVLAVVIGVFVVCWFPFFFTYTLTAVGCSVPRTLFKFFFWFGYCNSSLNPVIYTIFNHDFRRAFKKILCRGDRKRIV
Description: (§1) Human platelet plasma membranes were prepared by sonication of human platelet concentrates (Red Cross) followed by centrifugation on a discontinuous sucrose gradient (14%/34% by weight) for 3 hours at 140,000 x g. The membrane fraction was collected from the interface of the heavy and light sucrose, and will be herein designated as purified platelet plasma membrane (PPM).
(§2) Bound radioactivity was measured by scintillation counting of the GF/C filter in OCF scintillation cocktail (Amerscham) on a Beckman LR 8100 scintillation counter.
(§3) IC50 is the concentration of compound which reduces binding to 50% of the initial value.

α2-adrenergic receptor [2] = molecular target: T1, α2-adrenergic receptor; assay: biochemical
Description: as §1, §2, §3

[3] = test system: bulbar sympathetic cardioaccelerator and sympathetic vasoconstrictor centers; conditions: in vivo; cited from earlier work
heart = conditions: in vivo; cited from earlier work
[4] = test system: peripheral α-adrenergic receptors; conditions: used as an antihypertensive; initial stimulation of peripheral α-adrenergic receptors; cited from earlier work
α2-receptor sites = conditions: central nervous system; cited from earlier work
[5] = test system: α2-adrenergic receptor sites; conditions: cited from earlier work
[6] = patient; cited from earlier work
choroid of the eye = conditions: rats; clonidine hydrochloride; cited from earlier work

## Clc1cc(I)cc(Cl)c1N=C1NCCN1 [p-Iodoclonidine, 2-(2,6-dichloro-4-iodophenylimino-2)imidazolidine]
α2-adrenergic receptor [1]
  relative affinity / potency in competition for α2-adrenergic receptor sites, in words: greater affinity for the receptor than clonidine
α2-adrenergic receptor [1]; listed as p-iodoclonidine
  relative affinity / potency in competition for α2-adrenergic receptor sites, in words: more potent than either p-aminoclonidine or clonidine in competition for α2 -adrenergic receptor sites; also recorded: more potent (IC50 =1.3) than clonidine, p-aminoclonidine, or yohimbine; also recorded: binds better than epinephrine
α2-adrenergic receptor [2]
  IC50: 1.3 nM

## Clc1cccc(Cl)c1N=C1NCCN1 [Clonidine, 2-(2,6-dichlorophenylamine)-2-imidazoline]
[3]
  sympathetic outflow from the brain: decrease in sympathetic outflow from the brain
heart
  tissue localization: known to localize in the heart
[4]
  initial vascular effect: transient vasoconstriction
α2-receptor sites
  response to activation of α2-receptor sites: response similar to norepinephrine in the central nervous system
[5]
  binding site specificity: binds preferentially to α2 -adrenergic receptor sites

## Clc1cccc(Cl)c1N=C1NCCN1 [clonidine hydrochloride]
[6]
  route of excretion of drug and metabolites: leave the patient primarily through urinary discharge
Choroid of the eye
  buildup in the choroid of the eye: significant buildup of clonidine occurs in the choroid of the eye
  retinal degeneration: possibility of retinal degeneration
